“And” between values parts separate entries of the source, which are not always exact repeats. Equal entries are not always repeated. Numbers after ± are expanded uncertainties.
Key:
[1] = xn = mol fraction of the nth substance listed; settings: 100 kPa, Liquid, Vibrating tube method
[2] = excess molar enthalpy (molar enthalpy of mixing); xn = mol fraction of the nth substance listed; settings: 100 kPa, Liquid, Calvet calorimetry

CCC1CCC(=O)O1 (stereo not given) [2(3H)-furanone, 5-ethyldihydro-] + O
Settings | excess molar enthalpy, [2] | mass density, [1]
288.15 K, x1 = 0.000808 | -0.0011 kcal/mol | 999.463 ± 0.034 kg/m3 and 999.462 ± 0.034 kg/m3
288.15 K, x1 = 0.001615 | -0.00217 ± 0.000203 kcal/mol | 999.823 ± 0.034 kg/m3
288.15 K, x1 = 0.001616 | -0.00217 ± 0.000203 kcal/mol | 999.824 ± 0.034 kg/m3
288.15 K, x1 = 0.002421 | -0.00322 ± 0.000213 kcal/mol | 1000.19 ± 0.035 kg/m3
288.15 K, x1 = 0.002422 | -0.00321 ± 0.000213 kcal/mol | 1000.19 ± 0.035 kg/m3
288.15 K, x1 = 0.003226 | -0.00418 kcal/mol | 1000.55 ± 0.036 kg/m3 and 1000.54 ± 0.036 kg/m3
288.15 K, x1 = 0.004029 | -0.00515 kcal/mol | 1000.9 ± 0.038 kg/m3
288.15 K, x1 = 0.004831 | -0.00608 ± 0.000239 kcal/mol | 1001.26 ± 0.04 kg/m3
288.15 K, x1 = 0.004832 | -0.00607 ± 0.000239 kcal/mol | 1001.26 ± 0.04 kg/m3
298.15 K, x1 = 0.000808 | -0.000746 kcal/mol and -0.000743 kcal/mol | 997.357 ± 0.035 kg/m3 and 997.355 ± 0.035 kg/m3
298.15 K, x1 = 0.001615 | -0.00146 ± 0.000196 kcal/mol | 997.666 ± 0.035 kg/m3
298.15 K, x1 = 0.002421 | -0.00215 ± 0.000203 kcal/mol | 997.974 ± 0.035 kg/m3
298.15 K, x1 = 0.002422 | -0.00215 ± 0.000203 kcal/mol | 997.975 ± 0.035 kg/m3
298.15 K, x1 = 0.003226 | -0.00277 kcal/mol and -0.00278 kcal/mol | 998.276 ± 0.036 kg/m3
298.15 K, x1 = 0.004029 | -0.00339 kcal/mol and -0.0034 kcal/mol | 998.58 ± 0.037 kg/m3
298.15 K, x1 = 0.004831 | -0.004 ± 0.00022 kcal/mol | 998.888 ± 0.034 kg/m3
298.15 K, x1 = 0.004832 | -0.00401 ± 0.00022 kcal/mol | 998.888 ± 0.034 kg/m3
308.15 K, x1 = 0.000809 | -0.000394 ± 0.000189 kcal/mol | 994.296 ± 0.036 kg/m3
308.15 K, x1 = 0.001616 | -0.000758 ± 0.000191 kcal/mol | 994.558 ± 0.036 kg/m3
308.15 K, x1 = 0.001617 | -0.000762 ± 0.000191 kcal/mol | 994.559 ± 0.036 kg/m3
308.15 K, x1 = 0.002422 | -0.00109 ± 0.000194 kcal/mol | 994.819 ± 0.037 kg/m3
308.15 K, x1 = 0.002423 | -0.0011 ± 0.000194 kcal/mol | 994.819 ± 0.037 kg/m3
308.15 K, x1 = 0.003227 | -0.00141 ± 0.000196 kcal/mol | 995.082 ± 0.037 kg/m3
308.15 K, x1 = 0.003228 | -0.0014 ± 0.000196 kcal/mol | 995.075 ± 0.037 kg/m3
308.15 K, x1 = 0.004031 | -0.00169 ± 0.000198 kcal/mol | 995.334 ± 0.038 kg/m3
308.15 K, x1 = 0.004032 | -0.00169 ± 0.000198 kcal/mol | 995.334 ± 0.038 kg/m3
308.15 K, x1 = 0.004834 | -0.00193 ± 0.000201 kcal/mol | 995.586 ± 0.036 kg/m3
308.15 K, x1 = 0.004835 | -0.00196 ± 0.000201 kcal/mol | 995.586 ± 0.036 kg/m3
318.15 K, x1 = 0.000808 | -4.92e-05 ± 0.000186 kcal/mol | 990.434 ± 0.038 kg/m3
318.15 K, x1 = 0.001615 | -7.07e-05 ± 0.000186 kcal/mol | 990.653 ± 0.038 kg/m3
318.15 K, x1 = 0.001616 | -7.12e-05 ± 0.000186 kcal/mol | 990.654 ± 0.038 kg/m3
318.15 K, x1 = 0.002421 | -6.91e-05 ± 0.000186 kcal/mol | 990.873 ± 0.038 kg/m3
318.15 K, x1 = 0.002422 | -6.79e-05 ± 0.000186 kcal/mol | 990.873 ± 0.038 kg/m3
318.15 K, x1 = 0.003226 | -4.04e-05 ± 0.000186 kcal/mol | 991.088 ± 0.038 kg/m3
318.15 K, x1 = 0.003227 | -4.28e-05 ± 0.000186 kcal/mol | 991.089 ± 0.038 kg/m3
318.15 K, x1 = 0.004029 | 8.13e-06 kcal/mol | 991.301 ± 0.039 kg/m3
318.15 K, x1 = 0.00403 | 1.51e-05 kcal/mol | 991.301 ± 0.039 kg/m3
318.15 K, x1 = 0.004832 | 8.6e-05 ± 0.000186 kcal/mol | 991.512 ± 0.039 kg/m3
318.15 K, x1 = 0.004833 | 9.01e-05 ± 0.000186 kcal/mol | 991.512 ± 0.039 kg/m3

CC1CCCC(=O)O1 (stereo not given) [2H-pyran-2-one, tetrahydro-6-methyl-] + O
Settings | excess molar enthalpy, [2] | mass density, [1]
288.15 K, x1 = 0.001653 | -0.00342 ± 0.000215 kcal/mol | 999.935 ± 0.037 kg/m3
288.15 K, x1 = 0.002149 | -0.00437 ± 0.000222 kcal/mol | 1000.17 ± 0.038 kg/m3
288.15 K, x1 = 0.002478 | -0.00505 ± 0.000234 kcal/mol | 1000.35 ± 0.039 kg/m3
288.15 K, x1 = 0.002643 | -0.00535 ± 0.000239 kcal/mol | 1000.42 ± 0.039 kg/m3
288.15 K, x1 = 0.003302 | -0.0066 kcal/mol and -0.00666 kcal/mol | 1000.74 ± 0.04 kg/m3 and 1000.76 ± 0.04 kg/m3
288.15 K, x1 = 0.004124 | -0.00818 ± 0.000287 kcal/mol | 1001.15 ± 0.042 kg/m3
288.15 K, x1 = 0.004945 | -0.00973 ± 0.000311 kcal/mol | 1001.54 ± 0.044 kg/m3
298.15 K, x1 = 0.001158 | -0.00194 ± 0.000201 kcal/mol | 997.57 ± 0.037 kg/m3
298.15 K, x1 = 0.001653 | -0.00273 ± 0.000208 kcal/mol | 997.788 ± 0.038 kg/m3
298.15 K, x1 = 0.002147 | -0.00352 ± 0.000215 kcal/mol | 998.009 ± 0.038 kg/m3
298.15 K, x1 = 0.002641 | -0.00431 ± 0.000222 kcal/mol | 998.225 ± 0.04 kg/m3
298.15 K, x1 = 0.0033 | -0.00534 ± 0.000239 kcal/mol | 998.509 ± 0.59 kg/m3
298.15 K, x1 = 0.003306 | -0.00541 ± 0.000359 kcal/mol | 998.52 ± 1.1 kg/m3
298.15 K, x1 = 0.003307 | -0.00536 ± 0.000239 kcal/mol | 998.507 ± 0.59 kg/m3
298.15 K, x1 = 0.004125 | -0.00661 ± 0.000311 kcal/mol | 998.876 ± 0.89 kg/m3
298.15 K, x1 = 0.004129 | -0.00669 ± 0.00086 kcal/mol | 998.875 ± 0.038 kg/m3
298.15 K, x1 = 0.004131 | -0.00664 ± 0.000335 kcal/mol | 998.861 ± 0.4 kg/m3
298.15 K, x1 = 0.004946 | -0.0079 ± 0.000693 kcal/mol | 999.23 ± 0.29 kg/m3
298.15 K, x1 = 0.004951 | -0.00787 ± 0.00043 kcal/mol | 999.209 ± 1.1 kg/m3
298.15 K, x1 = 0.004953 | -0.00781 ± 0.000693 kcal/mol | 999.206 ± 0.29 kg/m3
308.15 K, x1 = 0.001656 | -0.00216 ± 0.000203 kcal/mol | 994.712 ± 0.04 kg/m3
308.15 K, x1 = 0.002482 | -0.00315 ± 0.000213 kcal/mol | 995.04 ± 0.039 kg/m3
308.15 K, x1 = 0.003307 | -0.00409 kcal/mol and -0.00415 kcal/mol | 995.379 ± 0.04 kg/m3 and 995.363 ± 0.04 kg/m3
308.15 K, x1 = 0.00413 | -0.00511 ± 0.000234 kcal/mol | 995.684 ± 0.041 kg/m3
308.15 K, x1 = 0.004131 | -0.00506 ± 0.000234 kcal/mol | 995.714 ± 0.041 kg/m3
308.15 K, x1 = 0.004953 | -0.00603 ± 0.000239 kcal/mol | 995.986 ± 0.038 kg/m3
308.15 K, x1 = 0.004954 | -0.00601 ± 0.000239 kcal/mol | 996.02 ± 0.038 kg/m3
318.15 K, x1 = 0.001655 | -0.00147 kcal/mol and -0.00148 kcal/mol | 990.83 ± 0.04 kg/m3 and 990.824 ± 0.04 kg/m3
318.15 K, x1 = 0.00248 | -0.0022 ± 0.000203 kcal/mol | 991.131 ± 0.041 kg/m3
318.15 K, x1 = 0.002481 | -0.00221 ± 0.000203 kcal/mol | 991.124 ± 0.041 kg/m3
318.15 K, x1 = 0.003305 | -0.0029 ± 0.00021 kcal/mol | 991.433 ± 0.041 kg/m3
318.15 K, x1 = 0.003306 | -0.00293 ± 0.00021 kcal/mol | 991.423 ± 0.041 kg/m3
318.15 K, x1 = 0.004127 | -0.0036 ± 0.000215 kcal/mol | 991.726 ± 0.042 kg/m3
318.15 K, x1 = 0.004129 | -0.00363 ± 0.000215 kcal/mol | 991.723 ± 0.042 kg/m3
318.15 K, x1 = 0.004948 | -0.00429 ± 0.000335 kcal/mol | 992.021 ± 0.054 kg/m3
318.15 K, x1 = 0.004952 | -0.00432 ± 0.000335 kcal/mol | 992.018 ± 0.054 kg/m3
